In paper PMC6968685 (Journal of Enzyme Inhibition and Medicinal Chemistry, 2020):

How the values were obtained:
[1] = Cytotoxicity evaluation, MTT; assay type: cell-based, human; conditions: human
In short: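 HepG2 hepatocarcinoma cells exposed to compound in duplicate, then viability measured by MTT reduction (0.5 mg/ml), formazan dissolved in DMSO and read at 570 nm against 630 nm. Viability expressed as percent of untreated cells; CC50 taken from dose-response curve, doxorubicin as positive control.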

[2] = test system: P. falciparum CQ-sensitive strain 3D7; test: In vitro antiplasmodial activity, SYBR Green I fluorescence-based method, strain 3D7; assay type: cell-based; conditions: Plasmodium falciparum; chloroquine-sensitive strain 3D7; 48 h incubation; read-out: P. falciparum strains IC50 values, 3D7
In short: (§1)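 P. falciparum 3D7 and W2 cultured in human erythrocytes in RPMI with 0.5% Albumax I at 37 °C, exposed 48 h to compounds tested […]. Parasite DNA read by SYBR Green I fluorescence (ex 485/em 535 nm); IC50 by non-linear regression, mean of three independent experiments.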

[3] = test system: P. falciparum CQ-resistant strain W2; test: In vitro antiplasmodial activity, SYBR Green I fluorescence-based method, strain W2; assay type: cell-based; conditions: Plasmodium falciparum; chloroquine-resistant strain W2; 48 h incubation; read-out: P. falciparum strains IC50 values, W2
In short: as §1

[4] = test system: T. brucei brucei AnTat 1.9; test: In vitro antitrypanosomal activity, Alamar Blue assay; assay type: cell-based; conditions: Trypanosoma brucei; slender bloodstream trypomastigotes, AnTat 1.9 strain; read-out: Trypanosoma brucei brucei IC50 values, Trypanos Antat 1.9
In short: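 Viability read-out: resazurin (Alamar Blue) fluorescence, 530 nm excitation/590 nm emission, after 5 h dye exposure following 69 h compound incubation at 37 °C, 5% CO2, 2000 parasites per well, doses in duplicate. IC50 values fitted nonlinearly, three independent runs.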

[5] = test system: Plasmodium telomeric sequence FPf1T G-quadruplex; test: FRET melting experiments, FPf1T; assay type: binding, P. falciparum; conditions: 2 μM compound, 0.2 μM oligonucleotide, K+ conditions
Procedure: (§2) These were performed with dual-labelled oligonucleotides mimicking the Plasmodium telomeric sequences FPf1T [FAM-5′(GGGTTTA)3-GGG3′-TAMRA] and FPf8T [FAM-5′ (GGGTTCA)3GGG3′-TAMRA], the Trypanosoma 9 and 11 chromosomic sequence FTrypBT (also named FEBR1T) [FAM-5′[…]3′-TAMRA], the human telomeric sequence F21T [FAM-(GGGTTA)3-GGG3′-TAMRA], and the human duplex sequence FdxT [FAM5′-[…]-hexaethyleneglycol-[…]3′-TAMRA][51]^,[52]. The oligonucleotides were pre-folded in 10 mM lithium cacodylate buffer (pH 7.2), with 10 mM KCl and 90 mM LiCl (K^+condition). The FAM emissions were recorded at 516 nm using a 492-nm excitation wavelength in the absence and presence of a single compound as a function of temperature (25–95 °C) in 96-well microplates by using a Stratagene MX3000P real-time PCR device at a rate of 1 °C·min^−1. Data were normalised between 0 and 1, and the required temperature for half-denaturation of oligonucleotides corresponding to the emission value of 0.5 was taken as the Tm. […] For each compound, three independent experiments were carried out.

[6] = test system: Plasmodium telomeric sequence FPf8T G-quadruplex; test: FRET melting experiments, FPf8T; assay type: binding, P. falciparum; conditions: 2 μM compound, 0.2 μM oligonucleotide, K+ conditions
Procedure: as §2

[7] = test system: Trypanosoma 9 and 11 chromosomic sequence FTrypBT (FEBR1T) G-quadruplex; test: FRET melting experiments, FtrypBT; assay type: binding, T. brucei brucei; conditions: 2 μM compound, 0.2 μM oligonucleotide, K+ conditions
Procedure: as §2

[8] = test system: human telomeric sequence F21T G-quadruplex; test: FRET melting experiments, F21T; assay type: binding; conditions: 2 μM compound, 0.2 μM oligonucleotide, K+ conditions
Procedure: as §2

[9] = test system: L. donovani (MHOM/IN/00/DEVI) promastigotes; test: In vitro antileishmanial activity, MTT assay on promastigotes; assay type: cell-based; conditions: Leishmania donovani, 72 h incubation, ≥10 = no activity noted at the highest concentration tested
In short: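 Log-phase L. donovani MHOM/IN/00/DEVI promastigotes (10^6/ml, Schneider's + 20% FCS) were exposed to graded compound concentrations (DMSO <0.5% v/v) for 72 h at 27 °C, in duplicate. Growth measured by MTT reduction (4 h, A570 nm); IC50 obtained by regression.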

[10] = test system: human duplex sequence FdxT; test: FRET melting experiments, FdxT duplex control; assay type: binding; conditions: 2 μM compound, 0.2 μM oligonucleotide, K+ conditions
Procedure: as §2

[11] = test system: FPf1T (DNA, G4) GGGTTTAGGGTTTAGGGTTTAGGG; test: FRET melting; conditions: 10 mM K+, 90 mM Li+; 10 mM lithium cacodylate pH 7.2; 2 µM compound, 0.2 µM oligonucleotide
[12] = test system: F21T (DNA, G4) GGGTTAGGGTTAGGGTTAGGG; test: FRET melting; conditions: 10 mM K+, 90 mM Li+; 10 mM lithium cacodylate pH 7.2; 2 µM compound, 0.2 µM oligonucleotide

SMILES | CC50 at 72 h [1] [µM] | IC50 [2] [µM] | IC50 [3] [µM] | IC50 [4] [µM] | ΔTm FPf1T [5] [°C] | ΔTm FPf8T [6] [°C] | ΔTm FtrypBT [7] [°C] | ΔTm F21T [8] [°C] | IC50 [9] [µM] | ΔTm FdxT [10] [°C] | ΔTm [11] [°C] | ΔTm [12] [°C]
COc1ccc2cc(-c3ccc(CNCCCCN(C)C)cc3)nc(-c3ccc(CNCCCCN(C)C)cc3)c2c1 [Compound 2e, 7-Methoxy-1,3-bis{4-[(4-dimethylaminobutyl)aminomethyl]phenyl}isoquinoline] | 9.57 ± 1 | 4.41 ± 0.51 | 6.06 ± 0.64 | 0.55 ± 0.122 | 27.3 ± 1.1 | 26.6 ± 0.2 | 24.0 ± 0.3 | 22.2 ± 0.1 | ≥ 10 | 4.1 ± 0.3 |  | 
COc1ccc2nc(-c3ccc(CNCCCCN(C)C)cc3)nc(-c3ccc(CNCCCCN(C)C)cc3)c2c1 |  |  |  |  |  |  |  |  |  |  | 19.8 ± 0.6 | 
COc1ccc2nc(-c3ccc(CNCCCN(C)C)cc3)nc(-c3ccc(CNCCCN(C)C)cc3)c2c1 [Compound 3i, 6-Methoxy-2,4-bis{4-[(3-dimethylaminopropyl)aminomethyl]phenyl}quinazoline] | 1.93 ± 0.1 | 4.05 ± 0.95 | 4.34 ± 0.74 | 0.44 ± 0.084 | 16.0 ± 0.3 | 15.6 ± 0.3 | 12.7 ± 0.7 | 12.6 ± 0.0 | ≥ 10 | 0.3 ± 0.3 |  | 
COc1ccc2nc(-c3ccc(CNCCCCN(C)C)cc3)nc(-c3ccc(CNCCCCN(C)C)cc3)c2c1 [Compound 3h, 6-Methoxy-2,4-bis{4-[(4-dimethylaminobutyl)aminomethyl]phenyl}quinazoline] | 11.7 ± 1.2 | 3.84 ± 0.38 | 3.68 ± 0.5 | 0.27 ± 0.035 | 19.8 ± 0.6 | 18.8 ± 0.7 | 15.7 ± 0.3 | 16.4 ± 1.3 | ≥ 10 | 2.0 ± 0.2 |  | 
CN(C)CCNCc1ccc(-c2cc(-c3ccc(CNCCN(C)C)cc3)c3ccccc3n2)cc1 [Compound 1c, 2,4-Bis{4-[(2-dimethylaminoethyl)aminomethyl]phenyl}quinoline] | 3.1 ± 0.9 | 0.032 ± 0.004 | 0.34 ± 0.037 | 1.48 ± 0.085 | 2.3 ± 0.7 | 2.7 ± 0.2 | 2.6 ± 0.4 | 2.8 ± 1.3 | ≥ 10 | −0.5 ± 0.4 |  | 
CN(C)CCCNCc1ccc(-c2cc3ccccc3c(-c3ccc(CNCCCN(C)C)cc3)n2)cc1 [Compound 2b, 1,3-Bis{4-[(3-dimethylaminopropyl)aminomethyl]phenyl}isoquinoline] | 3.47 ± 0.3 | 1.82 ± 0.31 | 3.02 ± 0.25 | 0.35 ± 0.049 | 13.6 ± 1.3 | 13.0 ± 1.1 | 11.7 ± 0.6 | 12.7 ± 0.3 | ≥ 10 | 0.3 ± 0.2 |  | 
COc1ccc2c(-c3ccc(CNCCCCN(C)C)cc3)nc(-c3ccc(CNCCCCN(C)C)cc3)cc2c1 [Compound 2i, 6-Methoxy-1,3-bis{4-[(4-dimethylaminobutyl)aminomethyl]phenyl}isoquinoline] | 10.8 ± 0.8 | 8.46 ± 0.66 | 2.4 ± 0.49 | 0.64 ± 0.323 | 12.8 ± 1.3 | 12.9 ± 1.0 | 8.4 ± 0.3 | 23.2 ± 0.6 | ≥ 10 | 0.9 ± 0.1 |  | 
CN1CCN(CCNCc2ccc(-c3cc(-c4ccc(CNCCN5CCN(C)CC5)cc4)c4ccccc4n3)cc2)CC1 [Compound 1f, 2,4-Bis{4-[(2–(4-methylpiperazin-1-yl)ethyl)aminomethyl]phenyl}quinoline] | 4.09 ± 0.3 | 2.42 ± 0.27 | 0.13 ± 0.024 | 0.99 ± 0.132 | 10.7 ± 1.0 | 11.0 ± 0.5 | 9.4 ± 0.6 | 9.5 ± 2.9 | ≥ 10 | −0.1 ± 0.2 |  | 
COc1ccc2c(-c3ccc(CNCCCN(C)C)cc3)nc(-c3ccc(CNCCCN(C)C)cc3)cc2c1 [Compound 2j, 6-Methoxy-1,3-bis{4-[(3-dimethylaminopropyl)aminomethyl]phenyl}isoquinoline] | 2.16 ± 0.2 | 7.21 ± 0.59 | 5.09 ± 0.76 | 0.59 ± 0.131 | 15.3 ± 0.7 | 15.0 ± 0.6 | 12.2 ± 1.1 | 13.9 ± 0.1 | ≥ 10 | 0.5 ± 0.3 |  | 
COc1ccc2c(-c3ccc(CNCCCCN(C)C)cc3)nc(-c3ccc(CNCCCCN(C)C)cc3)cc2c1 |  |  |  |  |  |  |  |  |  |  |  | 23.2 ± 0.6
COc1ccc2nc(-c3ccc(CNCCN(C)C)cc3)nc(-c3ccc(CNCCN(C)C)cc3)c2c1 [Compound 3j, 6-Methoxy-2,4-bis{4-[(2-dimethylaminoethyl)aminomethyl]phenyl}quinazoline] | 3.12 ± 0.2 | 0.56 ± 0.02 | 1.23 ± 0.15 | 1.04 ± 0.085 | 3.4 ± 0.4 | 3.1 ± 0.4 | 4.4 ± 0.5 | 7.2 ± 0.4 | ≥ 10 | −0.4 ± 0.2 |  | 
COc1ccc2cc(-c3ccc(CNCCCN(C)C)cc3)nc(-c3ccc(CNCCCN(C)C)cc3)c2c1 [Compound 2f, 7-Methoxy-1,3-bis{4-[(3-dimethylaminopropyl)aminomethyl]phenyl}isoquinoline] | 2.12 ± 0.2 | 1.47 ± 0.24 | 4.76 ± 0.66 | 0.52 ± 0.072 | 20.3 ± 1.1 | 18.5 ± 0.5 | 16.9 ± 1.1 | 15.8 ± 0.1 | ≥ 10 | 0.8 ± 0.3 |  | 
